Measured values as given in patent publication EP2002836B1, “Cyclocondensed azaindoles active as kinase inhibitors” (Nerviano Medical Sciences S.r.l., priority 2007, dated 2008).

How the values were obtained:
AKT1 = AKT1 (Homo sapiens, UniProt P31749); test: FABS-NMR screening (3-FABS, 19F-labelled AKTide-like substrate) on AKT-1; type: biochemical; parameters: The active human Ser-Thr protein kinase AKT-1 Full Length was expressed as GST fusion protein; GST (cleaved yes); made in house; host or cells: insect cells; details: 25 nM protein, 30 µM substrate, 1.5 mM ATP; read-out: AKT1 IC50 (µM) FABS NMR assay
Description: The biochemical functional NMR screening on the proteins kinase AKT-1 and PKA was performed using the 3-FABS (3-Fluorine Atoms for Biochemical Screening) technique developed by C. Dalvit and the NMR group in house (C. Dalvit et al 2003 J. Am. Chem. Soc. 125 (47): 14620).
The method require the use of a ^19F-labelled substrate. The same commercial peptide was used as substrate in both enzymatic reaction: the Tyr just before the phosphorilation site in the AKTide peptide was mutated in a 3-tryfluormethyl-Phe by Bachem.
The AKTide like peptide sequence is reported below: • H-Ala-Arg-Lys-Arg-Glu-Arg-Ala-F(3-CF3)-Ser-Phe-Gly-His-His-Ala-OH
The active human Ser-Thr protein kinase AKT-1 Full Length was expressed as GST fusion protein in insect cells and then the GST was cleaved with PreScission protease. The active cycled AMP-dependent human protein kinase A PKA was expressed as polyHis-tag protein in E.Coli and purified by affinity column.
Reactions were performed in an end point format in eppendorf of 0.5 ml using the buffer solution 50mM Tris, pH 7.5, 5mM MgCl2, 1mM DTT, 8% D2O and 0.001% Triton-X-100; the final volume was of 560 µl. The substrate and protein concentration were of 30 µM and 25 nM respectively. The reactions were performed using an ATP concentration of about 9 times its KM: 150 µM in the test with PKA and 1.5 mM in the AKT-1 experiments. A sample in absence of inhibitor was run as control in order to follow the ongoing of the reaction and it represents the 0% inhibition. Different concentration compound stock solutions in DMSOd6 were made in order to add the same amount of DMSOd6 in each sample: usually the compounds stock were of 0.03, 0.2, 2, and 10 mM. 0.56 µl of these solution was added in each sample in order to reach the final compounds concentration of 30 nM, 200 nM 2 µM and 10 µM respectively; 0.56 µl of DMSOd6 was added in the control too. The reactions were quenched after about 100/120 minutes with 10 mM of Staurosporine (Sigma code:S4400), transferred into the 5 mm NMR tube (Cortec code: NE-MP5-8) and put onto the Sample Management System (SMS) autosampler for automatic data collection. The spectra were recorded using the Varian Inova 600 MHz NMR spectrometer operating at a ^19F Larmor frequency of 564 MHz and using a 5mm probe with the inner coil tuned to ^19F and the outer coil tuned to H. The data were recorded without proton decoupling with a spectral width of 12000 Hz, an acquisition time of 0.8s and a relaxation delay of 2.8s. Chemical shifts are referenced to trifluoroacetic acid.
IC50 determination was achieved by measuring the substrate signal as a function of the inhibitor concentration using one of the formulas below. […] IC50 data were analyzed with non-linear least squares methods in the Origin 5.0 software package.

AKT3 = AKT3 (Homo sapiens, UniProt Q9Y243); test: Biochemical assay for inhibitors of AKT3 kinase activity (33P trans-phosphorylation, Dowex resin); details: 1 nM enzyme, 180 microM ATP, 28.5 microM peptide substrate; read-out: AKT3 IC50 (µM) Biochem assay
Description: The N-terminal GST fusion proteins used for the assays were prepared according to the methods described in Kumar, C. C. Biochem. Biophys. ACTA 2001, 1526, 257-268, and in Alessi, D. R.. Biochem. J. 1998 331, 299-308.
The in vitro kinase inhibition assay was conducted in the same way as described for AKT1. The kinase assay was run with a final enzyme concentration of 1 nM, in the presence of 180 microM ATP, 0.88 nM ^33P-γ-ATP and 28.5 microM substrate, a carboxy-terminally biotinylated peptide of the following sequence: ARKRERTYSFGHHA-biotin. The peptide was obtained in batches of >95% peptide purity from PRIMM labs Inc. (Boston MA, USA).

AKT1, sequence (P31749 whole entry, the tested form may be a part): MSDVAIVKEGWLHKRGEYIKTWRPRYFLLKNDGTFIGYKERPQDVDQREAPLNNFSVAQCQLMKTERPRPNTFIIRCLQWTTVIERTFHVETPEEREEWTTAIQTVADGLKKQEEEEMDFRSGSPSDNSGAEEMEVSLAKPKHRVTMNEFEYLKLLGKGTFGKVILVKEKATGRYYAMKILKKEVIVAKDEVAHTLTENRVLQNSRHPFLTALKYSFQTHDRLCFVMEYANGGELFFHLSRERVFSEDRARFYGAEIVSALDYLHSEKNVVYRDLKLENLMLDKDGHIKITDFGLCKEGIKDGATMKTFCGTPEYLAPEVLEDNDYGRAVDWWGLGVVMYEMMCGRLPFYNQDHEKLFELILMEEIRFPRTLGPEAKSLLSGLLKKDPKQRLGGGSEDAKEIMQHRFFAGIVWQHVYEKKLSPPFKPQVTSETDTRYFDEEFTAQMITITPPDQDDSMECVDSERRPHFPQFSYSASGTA
AKT3, sequence (Q9Y243 2-479): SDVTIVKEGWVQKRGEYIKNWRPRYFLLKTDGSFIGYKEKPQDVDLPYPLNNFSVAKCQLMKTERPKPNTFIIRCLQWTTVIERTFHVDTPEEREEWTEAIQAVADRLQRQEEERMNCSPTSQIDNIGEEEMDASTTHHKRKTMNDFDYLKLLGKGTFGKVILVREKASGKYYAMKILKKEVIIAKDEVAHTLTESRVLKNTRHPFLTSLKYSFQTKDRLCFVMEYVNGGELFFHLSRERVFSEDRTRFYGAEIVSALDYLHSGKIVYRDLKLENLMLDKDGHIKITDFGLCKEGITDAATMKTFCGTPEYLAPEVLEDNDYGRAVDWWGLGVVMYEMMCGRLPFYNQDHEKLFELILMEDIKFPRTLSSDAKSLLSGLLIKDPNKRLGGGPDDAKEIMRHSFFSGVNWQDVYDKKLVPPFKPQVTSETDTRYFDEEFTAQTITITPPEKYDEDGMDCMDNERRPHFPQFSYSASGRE

IC50 (AKT1) [µM] | IC50 (AKT3) [µM] | SMILES
0.15 | 0.032 | NC[C@H](Cc1ccccc1)NC(=O)C1=Cc2c[nH]c3nccc(c23)CC1 [Cpd. 1, N-[(1S)-2-amino-1-benzylethyl]-6,7-dihydro-2H-2,3-diazabenzo[cd]azulene-8-carboxamide]
0.76 | 0.187 | CC(=O)N1CC(C(=O)N[C@H](CN)Cc2ccccc2)=Cc2c[nH]c3nccc1c23 [Cpd. 3, 6-acetyl-N-[(1S)-2-amino-1-benzylethyl]-6,7-dihydro-2H-2,3,6-triazabenzo[cd]azulene-8-carboxamide]
0.03 | 0.041 | NC[C@H](Cc1ccccc1)NC(=O)C1=Cc2c[nH]c3nccc(c23)NC1 [compound 2, N-[(1S)-2-amino-1-benzylethyl]-6,7-dihydro-2H-2,3,6-triazabenzo[cd]azulene-8-carboxamide]
0.315 | 0.043 | O=C(N[C@H](CN1CCCC1)c1ccccc1)C1=Cc2c[nH]c3nccc(c23)CC1 [Cpd. 6, N-[(1S)-1-phenyl-2-pyrrolidin-1-ylethyl]-6,7-dihydro-2H-2,3-diazabenzo[cd]azulene-8-carboxamide]
